Assay results taken from patent US20090181976A1, “Use of Compounds Binding to the Sigma Receptor for the Treatment of Metabolic Syndrome” (priority 2006, published 2009).

Experiments:
[1] = biological target: sigma-1 (σ1) receptors (Homo sapiens, UniProt Q99720); details: statement on literature knowledge; cited from earlier work
[2] = test system: obese (diet-induced obesity) wild type mice; experiment: Triglyceride levels in blood of high fat diet-fed obese mice after 9 days of treatment; assay type: in vivo; details: male C57BL/6J mice on high fat diet, 50 mg/Kg s.c., once a day, blood on day 10, mean±standard deviation, p<0.05 vs vehicle control (91.75±32.88)
Description: Pharmacologic approach: Treatment of obese (diet-induced obesity) wild type mice with a sigma-1 receptor antagonist results in a significant reduction in the concentration of triglycerides in blood.
Wild type male mice from the C57BL/6J strain were used in these experiments. Mice of 8-10 weeks of age were fed for two months with high fat diet (49% fat content; Harlan Ibérica, TD97366). Treatment was administered subcutaneously, once a day, for 9 days. Treated animals received daily (for 9 days) a single dose of 50 mg/kg of BD-1063 (a sigma-1 receptor antagonist). Control animals received daily vehicle (saline). During the period of treatment, mice had free access to water and food (high fat diet). At the end of the treatment, on day 10, blood samples were obtained through intracardiac puncture and triglyceride levels were measured using the Cholestech LDX blood analyzer. Student t test was applied to determine statistical significance.
Values are means±standard deviation. Units are expressed as mg/100 mL.

Sequence of sigma-1 (σ1) receptors (Q99720 whole entry): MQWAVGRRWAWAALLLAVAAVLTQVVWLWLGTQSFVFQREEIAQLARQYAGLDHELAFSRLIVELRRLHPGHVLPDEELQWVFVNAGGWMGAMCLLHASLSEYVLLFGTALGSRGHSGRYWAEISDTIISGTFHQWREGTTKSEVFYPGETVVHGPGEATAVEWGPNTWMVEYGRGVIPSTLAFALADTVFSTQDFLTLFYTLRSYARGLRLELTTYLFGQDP

Row | SMILES | affinity of sigma-1 receptors [1] | Triglyceride Levels [2] [mg/100 mL]
1 | CC(C)=CCN1CCC2(C)c3cc(O)ccc3CC1C2C (centres unmarked) [pentazocine] | very high affinity | 
2 | CN1CCN(CCc2ccc(Cl)c(Cl)c2)CC1 [BD-1063] |  | 56.8±9.41
